Test results: patent publication US4340598A, “Hypotensive imidazole derivatives” (Takeda Chemical Industries, Ltd., priority 1979, dated 1982)
Where a name gives a salt, the structure may show the parent alone.

Tested on: Angiotensin II (aortic blood vessel of a rabbit)
Test: Angiotensin II antagonistic effect, inhibition of A II-induced isometric tension change of isolated rabbit aortic blood vessel
Type: cell-based
Details: Oryctolagus cuniculus, 0.25 h; Concn. of drug substance 10^-5 M; A II 4×10^-9 M; 15 minutes treatment; read-out: Potency of inhibition
Procedure: Angiotensin II (hereinafter referred to briefly as A II) antagonistic effect of the compound (I) of the present invention (aortic blood vessel of a rabbit). The blood-vessel preparation and reaction were done in accordance with the method as described in "European Journal of Pharmacology", vol. 18, pp. 316 (1972). While employing A II in the concentration of 4×10^-9M, the potency of inhibition was calculated by the following equation from changes in isometric tension of the blood vessel brought about by A II and that found after treatment with a test drug substance for 15 minutes, respectively. [formula] where; T1 =Change in isometric tension of the blood vessel brought about by A II without treatment with a test drug substance (g) T2 =Change in tension found after treatment with a test drug substance (g)

SMILES | inhibition at 10 µM [%]
Cc1ccc(-c2ncc(CC(=O)O)n2Cc2ccccc2)cc1 | 5
CN(C)c1ccc(-c2nc(Cl)c(CC(N)=O)n2Cc2ccccc2)cc1 | 10
COC(=O)Cc1cnc(-c2ccccc2)n1Cc1ccc([N+](=O)[O-])cc1 | 38
NC(=O)Cc1c(Cl)nc(-c2ccccc2)n1Cc1ccccc1 | 20
CCCCn1c(-c2ccccc2)nc(Cl)c1CC(=O)O [1-n-butyl-4-chloro-2-phenylimidazole-5-acetic acid] | 25
COc1ccc(-c2ncc(CC(=O)O)n2Cc2ccccc2)cc1 | 5
O=C(O)Cc1nc(-c2ccccc2)n(Cc2ccccc2)c1Cl | 10
CN(C)c1ccc(-c2nc(Cl)c(C(N)=O)n2Cc2ccccc2)cc1 | 18
O=C(O)Cc1c(Cl)nc(-c2ccccc2)n1CCc1ccccc1 [4-chloro-2-phenyl-1-phenethylimidazole-5-acetic acid hydrochloride] | 12
O=C(O)c1c(Cl)nc(-c2ccccc2)n1Cc1ccccc1 | 5
O=C(O)CCc1c(Cl)nc(-c2ccccc2)n1Cc1ccccc1 | 13

Same assay, conditions: Oryctolagus cuniculus, 0.25 h; Concn. of drug substance 10^-6 M; A II 4×10^-9 M; 15 minutes treatment; read-out: Potency of inhibition

SMILES | inhibition at 1 µM [%]
CCCCc1nc(Cl)c(CC(N)=O)n1Cc1ccccc1 [1-Benzyl-2-butyl-4-chloroimidazole-5-acetamide] | 19
CCCCc1nc(CC(=O)O)c(Cl)n1Cc1ccccc1Cl | 30
O=C(O)Cc1nc(C2CCCC2)n(Cc2ccccc2)c1Cl | 10
CCCCc1nc(CC(=O)O)c(Cl)n1Cc1ccccc1 | 22
